Reference: US6903132B2, “Non-peptide GnRH agents, pharmaceutical compositions and methods for their use” (Agouron Pharmaceuticals, Inc., priority 2002, dated 2005)
Values joined by “and” are separate entries in the source; they are usually repeats but may differ in a detail not shown here. Identical values can stand only once.

Columns and labels:
[1] = Pharmacokinetics in male rats; type: in vivo, rat; conditions: for M T1/ hr: male rats (MR); for M T1/ hr / Tmax: dosed orally at 50 mg/kg; for M Fp. / Tmax: male rats; for M Fp.: oral bioavailability, AUCp.o./AUCi.v.; for Tmax: rat, plasma, po, read-out: MR Tmax hr
Procedure: (§1) Rats (male or female, 200-225 g) are prepared with indwelling jugular vein cannula as described by Harms et al., Applied Physiol. 36:391-398 (1974), and allowed to recover overnight with free access to the standard vivarium chow and water. The compounds are administered to female rats at 5 mg/kg i.v. and 10 mg/kg p.o. as solutions in 10% DMSO+10% cremophor+80% saline or 10% cremophor+90% saline. The male rats are dosed orally at 50 mg/kg in the vehicles specified in Table 3. The blood samples are withdrawn at specific times, plasma is immediately separated and compound extracted with ethyl acetate. The samples are analyzed by LC-MS using 30-90% gradient of ACN in 50 mM ammonium acetate.
(§2) The pharmacokinetic parameters are calculated using WinNonlin software (Scientific Consulting Inc.). The bioavailability is calculated as AUCp.o./AUCi.v., where AUCp.o. and AUCi.v. are areas under the plasma concentration-time curve after oral and i.v. administration, respectively.

[2] = Pharmacokinetics in female rats; type: in vivo, rat; conditions: for FR Fp.o.: 20 mg/kg as 10 mg/ml solution in 10% DMSO 10% cremophor 80% saline, AUCp.o./AUCi.v.; for Tmax: rat, plasma, po, dose and vehicle per footnote, read-out: FR Tmax hr
Procedure: as §1, with “[…] […]” for “The compounds are administered to female rats at 5 mg/kg i.v. and 10 mg/kg p.o. as solutions in 10% DMSO+10% cremophor+80% saline or 10% cremophor+90% saline. The male rats are dosed orally at 50 mg/kg in the vehicles specified in Table 3.”
as §2

[3] = In vitro metabolism: disappearance of parent compound in liver microsomes (male rat); type: in vitro ADME; conditions: 5 uM compound, 0.5 mg/ml microsomal protein, 2 mM NADPH, 30 minutes at 37° C.
Procedure: (§3) Human, rat, dog, and monkey liver microsomes are isolated by differential centrifugation. Specimens of human liver were obtained from the International Institute for the Advancement of Medicine (Scranton, Pa.). The disappearance of the parent compound is studied in a mixture containing 5 uM compound, 0.5 mg/ml microsomal protein, and 2 mM NADPH in 50 mM K Phosphate buffer, pH 7.4. Samples are incubated for 30 minutes at 37° C. The reaction is terminated by the addition of acetonitrile and compounds analyzed by LC-MS as described above.

[4] = In vitro metabolism: disappearance of parent compound in liver microsomes; type: in vitro ADME; conditions: human liver microsomes; 5 uM compound, 0.5 mg/ml microsomal protein, 2 mM NADPH, 30 minutes at 37° C.
Procedure: as §3

M T1/ hr [1] [h]	M Fp. [1] [%]	Tmax [1] [h]	FR Fp.o. [2] [%^1]	Tmax [2] [h]	Male t % p. 30′ [3] [%]	Huma % p. 30′ [4]	Structure (SMILES)
1.2	4	1	15	2	97	40%	COc1cc2c(cc1Cc1ccc(C(=O)NNc3cc(C)c4c(C)nn(C)c4n3)o1)C(C)(C)CCC2(C)C [Example C2, 5-[(3-Methoxy-5,5,8,8-tetramethyl-5,6,7,8-tetrahydro-2-naphthalenyl)methyl]-N′-(1,3,4-trimethyl-1H-pyrazolo[3,4-b]pyridin-6-yl)-2-furohydrazide]
1.3	1	1	19	1	99	63% and 54% and 37% and 38%	Cc1cc2c(cc1Cc1ccc(C(=O)NNc3cc(C)c4c(C)nn(C)c4n3)o1)C(C)(C)CCC2(C)C [Example C1, 5-[(3,5,5,8,8-Pentamethyl-5,6,7,8-tetrahydro-2-naphthalenyl)methyl]-N′-(1,3,4-trimethyl-1H-pyrazolo[3,4-b]pyridin-6yl)-2-furohydrazide]
